Test results: patent US9604933B2, “Pyrazolochalcones as potential anticancer agents” (COUNCIL OF SCIENTIFIC AND INDUSTRIAL RESEARCH, priority 2013, dated 2017)

Assays:
[1] = test system: HOP92; test: NCI SRB cytotoxicity, non-small cell lung HOP92; format: cell-based; settings: Homo sapiens, HOP-92, 48 h exposure
Experimental: (§1) The pyrazolochalcones (7e, 8e, 10e, 11e, 12e, 13e and 8f) have been tested against fifty nine human tumor cell lines derived from nine cancer types (leukemia, non-small cell lung cancer, colon cancer, CNS cancer, melanoma, ovarian cancer, renal cancer, prostate cancer and breast cancer) as per the NCI protocol. For each compound, dose response curves for individual cell lines have been measured at a minimum of five concentrations at 10 fold dilutions. A protocol of 48 h continuous drug exposure has been used, and a sulforhodamine B (SRB) protein assay has been used to estimate cell viability or growth. The concentration for 50% cell growth inhibition (GI50), 50% cell death (LC50, 50% growth) and total cell growth inhibition (TGI, 0% growth) values were tabulated (Table-1). DMSO was used as control to calculate the values of GI50, LC50 and TGI. The compounds 7e, 8e, 10e, 11e, 12e, 13e and 8f has been evaluated for their in vitro cytotoxicity in […] cell lines from nine human cancer types of leukemia (K-562, SR), non-small cell lung (Hop-62, NCI-H226, NCI-H522), colon (HCT-116, HCT-15, HCC-2998), CNS (SF-539), melanoma (SK-MEL-5, UACC-62, M14), ovarian (IGROV1), renal (A498), prostate (PC3) and breast (BT-549, MDA-MB-435, HS578T) origin. The results are expressed as percent of cell growth determined relative to that of untreated control cells (Table 2).

[2] = test system: BT-549; test: NCI SRB cytotoxicity, breast BT-549; format: cell-based; settings: Homo sapiens, 48 h exposure
Experimental: as §1

[3] = test system: NCI-H226; test: NCI SRB cytotoxicity, non-small cell lung NCI-H226; format: cell-based; settings: Homo sapiens, 48 h exposure
Experimental: as §1

[4] = test system: UO-31; test: NCI SRB cytotoxicity, renal UO-31; format: cell-based; settings: Homo sapiens, 48 h exposure
Experimental: as §1

[5] = test system: IGROV1; test: NCI SRB cytotoxicity, ovarian IGROV1; format: cell-based; settings: Homo sapiens, IGROV-1, 48 h exposure
Experimental: as §1

[6] = test system: Non-small cell lung; test: NCI SRB cytotoxicity, non-small cell lung panel average; format: cell-based, human; settings: average of cell lines; for GI50 / LC50: Homo sapiens; for GI50: read-out: Log10 GI50 (concentration in mol/L causing 50% growth inhibition) (converted); for LC50: read-out: Log10 LC50 (concentration in mol/L causing 50% cell death) (converted)
Experimental: as §1
(§2) Each cancer type represents the average of six to eight different cancer cell lines.

[7] = test system: M14; test: NCI SRB cytotoxicity, melanoma M14; format: cell-based; settings: Homo sapiens, 48 h exposure
Experimental: as §1

[8] = test system: SN12C; test: NCI SRB cytotoxicity, renal SN12C; format: cell-based; settings: Homo sapiens, 48 h exposure
Experimental: as §1

[9] = test system: SK-MEL-5; test: NCI SRB cytotoxicity, melanoma SK-MEL-5; format: cell-based; settings: Homo sapiens, 48 h exposure
Experimental: as §1

[10] = test system: SK-MEL-28; test: NCI SRB cytotoxicity, melanoma SK-MEL-28; format: cell-based; settings: Homo sapiens, 48 h exposure
Experimental: as §1

[11] = test system: Renal; test: NCI SRB cytotoxicity, renal panel average; format: cell-based, human; settings: average of cell lines; for GI50 / CC50: Homo sapiens; for GI50: read-out: Log10 GI50 (concentration in mol/L causing 50% growth inhibition) (converted); for CC50: read-out: Log10 LC50 (concentration in mol/L causing 50% cell death) (converted)
Experimental: as §1, §2

[12] = test system: HL-60(TB); test: NCI SRB cytotoxicity, leukemia HL-60(TB); format: cell-based; settings: Homo sapiens, 48 h exposure
Experimental: as §1

[13] = test system: SNB-75; test: NCI SRB cytotoxicity, CNS SNB-75; format: cell-based; settings: Homo sapiens, 48 h exposure
Experimental: as §1

[14] = test system: UACC-257; test: NCI SRB cytotoxicity, melanoma UACC-257; format: cell-based; settings: Homo sapiens, 48 h exposure
Experimental: as §1

[15] = test system: SR; test: NCI SRB cytotoxicity, leukemia SR; format: cell-based; settings: Homo sapiens, 48 h exposure
Experimental: as §1

[16] = test system: A498; test: NCI SRB cytotoxicity, renal A498; format: cell-based; settings: Homo sapiens, 48 h exposure
Experimental: as §1

[17] = test system: K-562; test: NCI SRB cytotoxicity, leukemia K-562; format: cell-based; settings: Homo sapiens, K562, 48 h exposure
Experimental: as §1

[18] = test system: CCRF-CEM; test: NCI SRB cytotoxicity, leukemia CCRF-CEM; format: cell-based; settings: Homo sapiens, 48 h exposure
Experimental: as §1

[19] = test system: SNB-19; test: NCI SRB cytotoxicity, CNS SNB-19; format: cell-based; settings: Homo sapiens, 48 h exposure
Experimental: as §1

[20] = test system: Melanoma; test: NCI SRB cytotoxicity, melanoma panel average; format: cell-based, human; settings: average of cell lines; for GI50 / LC50: Homo sapiens; for GI50: read-out: Log10 GI50 (concentration in mol/L causing 50% growth inhibition) (converted); for LC50: read-out: Log10 LC50 (concentration in mol/L causing 50% cell death) (converted)
Experimental: as §1, §2

[21] = test system: T-47D; test: NCI SRB cytotoxicity, breast T-47D; format: cell-based; settings: Homo sapiens, T47D, 48 h exposure
Experimental: as §1

[22] = test system: NCI-H23; test: NCI SRB cytotoxicity, non-small cell lung NCI-H23; format: cell-based; settings: Homo sapiens, 48 h exposure
Experimental: as §1

[23] = test system: KM12; test: NCI SRB cytotoxicity, colon KM12; format: cell-based; settings: Homo sapiens, 48 h exposure
Experimental: as §1

[24] = test system: LOX IMVI; test: NCI SRB cytotoxicity, melanoma LOX IMVI; format: cell-based; settings: Homo sapiens, 48 h exposure
Experimental: as §1

[25] = test system: MALME-3M; test: NCI SRB cytotoxicity, melanoma MALME-3M; format: cell-based; settings: Homo sapiens, 48 h exposure
Experimental: as §1

[26] = test system: 786-0; test: NCI SRB cytotoxicity, renal 786-0; format: cell-based; settings: Homo sapiens, 48 h exposure
Experimental: as §1

[27] = test system: OVCAR-5; test: NCI SRB cytotoxicity, ovarian OVCAR-5; format: cell-based; settings: Homo sapiens, 48 h exposure
Experimental: as §1

[28] = test system: RXF 393; test: NCI SRB cytotoxicity, renal RXF 393; format: cell-based; settings: Homo sapiens, 48 h exposure
Experimental: as §1

[29] = test system: SK-OV-3; test: NCI SRB cytotoxicity, ovarian SK-OV-3; format: cell-based; settings: Homo sapiens, 48 h exposure
Experimental: as §1

[30] = test system: MCF7; test: NCI SRB cytotoxicity, breast MCF7; format: cell-based; settings: Homo sapiens, 48 h exposure
Experimental: as §1

[31] = test system: NCI-H460; test: NCI SRB cytotoxicity, non-small cell lung NCI-H460; format: cell-based; settings: Homo sapiens, 48 h exposure
Experimental: as §1

[32] = test system: OVCAR-4; test: NCI SRB cytotoxicity, ovarian OVCAR-4; format: cell-based; settings: Homo sapiens, 48 h exposure
Experimental: as §1

| Structure (SMILES) | GI50 [2] | GI50 [3] | GI50 [4] | GI50 [5] | LC50 [6] | Log10 TGI (concentration in mol/L causing total growth inhibition (0% growth)) [6] | GI50 [7] | GI50 [8] | GI50 [9] | GI50 [10] | CC50 [11] | Log10 TGI (concentration in mol/L causing total growth inhibition (0% growth)) [11] | GI50 [12] | GI50 [13] | GI50 [14] | GI50 [15] | GI50 [16] | GI50 [17] | GI50 [18] | GI50 [19] | further results |
| --- | --- | --- | --- | --- | --- | --- | --- | --- | --- | --- | --- | --- | --- | --- | --- | --- | --- | --- | --- | --- | --- |
| COc1cc(C(=O)/C=C/c2cc(-c3cc(OC)c(OC)c(OC)c3)n[nH]2)cc(OC)c1OC [10e, (E)-1-(3,4,5-trimethoxyphenyl)-3-(3-(3,4,5-trimethoxyphenyl)-1H-pyrazol-5-yl)prop-2-en-1-one] | 1.57 µM | 1.6 µM | 1.19 µM | 3.14 µM | 13.5 µM | −5.42 mol/L | 1.79 µM | 1.47 µM | 1.57 µM | 1.82 µM | 7.59 µM | −5.45 mol/L | 1.93 µM | 1.54 µM | 1.57 µM | 0.39 µM | 1.61 µM | 2.96 µM | 1.68 µM | 1.66 µM | GI50 [1]: 0.86 µM; GI50 [6]: 1.29 µM; GI50 [11]: 1.58 µM; GI50 [20]: 1.7 µM; LC50 [20]: 6.46 µM; Log10 TGI (concentration in mol/L causing total growth inhibition) [20]: −5.47 mol/L; GI50 [21]: 1.13 µM; GI50 [22]: 3.04 µM; GI50 [23]: 1.49 µM; GI50 [24]: 1.52 µM; GI50 [25]: 1.86 µM; GI50 [26]: 1.56 µM; GI50 [27]: 1.64 µM; GI50 [28]: 1.26 µM; GI50 [29]: 3.2 µM; GI50 [30]: 0.64 µM; GI50 [31]: 1.89 µM; GI50 [32]: 1.45 µM |
| COc1cc(-c2cc(/C=C/C(=O)c3ccc(Cl)c(Cl)c3)[nH]n2)cc(OC)c1OC [12e, (E)-1-(3,4-dichlorophenyl)-3-(3-(3,4,5-trimethoxyphenyl)-1H-pyrazol-5-yl)prop-2-en-1-one] | 8.4 µM | 18.6 µM | 5.73 µM | 24 µM | 200 µM | −4.52 mol/L | 18.2 µM | 13.7 µM | 13.4 µM | 18.5 µM | 93.3 µM | −4.22 mol/L | 7.18 µM | 8.7 µM | 16.3 µM | 0.39 µM | 5.89 µM | 4.96 µM | 2.15 µM | 9.83 µM | GI50 [1]: 2.53 µM; GI50 [6]: 6.61 µM; GI50 [11]: 8.91 µM; GI50 [20]: 13.2 µM; LC50 [20]: 95.5 µM; Log10 TGI (concentration in mol/L causing total growth inhibition) [20]: −4.21 mol/L; GI50 [21]: 1.66 µM; GI50 [22]: 23.4 µM; GI50 [23]: 3.37 µM; GI50 [24]: 3.39 µM; GI50 [25]: 29.2 µM; GI50 [26]: 10.1 µM; GI50 [27]: 20.5 µM; GI50 [28]: 2.7 µM; GI50 [29]: 4.19 µM; GI50 [30]: 1.8 µM; GI50 [31]: 4.9 µM; GI50 [32]: 10.8 µM |
| COc1cc(-c2cc(/C=C/C(=O)c3ccc(F)c(F)c3)[nH]n2)cc(OC)c1OC [13e, (E)-1-(3,4-difluorophenyl)-3-(3-(3,4,5-trimethoxyphenyl)-1H-pyrazol-5-yl)prop-2-en-1-one] | 4.11 µM | 3.72 µM | 2.63 µM | 3.62 µM | 87.1 µM | −4.75 mol/L | 2.7 µM | 3.37 µM | 2.27 µM | 5.31 µM | 93.3 µM | −4.71 mol/L | 2.48 µM | 2.9 µM | 1.75 µM | 2.92 µM | 2.11 µM | 3.31 µM | 3.8 µM | 3.64 µM | Log10 GI50 (concentration in mol/L causing 50% growth inhibition) [6]: −5.54 mol/L; Log10 GI50 (concentration in mol/L causing 50% growth inhibition) [11]: −5.56 mol/L; LC50 [20]: 64.6 µM; Log10 GI50 (concentration in mol/L causing 50% growth inhibition) [20]: −5.56 mol/L; Log10 TGI (concentration in mol/L causing total growth inhibition) [20]: −5.00 mol/L; GI50 [21]: 2.45 µM; GI50 [22]: 2.6 µM; GI50 [23]: 3.06 µM; GI50 [24]: 3.18 µM; GI50 [25]: 2.96 µM; GI50 [26]: 3.35 µM; GI50 [27]: 4.48 µM; GI50 [28]: 2.05 µM; GI50 [29]: 3.53 µM; GI50 [30]: 3.2 µM; GI50 [31]: 2.96 µM; GI50 [32]: 2.2 µM |
